From PMC9276671, “A first-in-human Phase I dose-escalation trial of the novel therapeutic peptide, ALM201, demonstrates a favourable safety profile in unselected patients with ovarian cancer and other advanced solid tumours” (British Journal of Cancer, 2022)
Where two headings read alike, the source gives them in different places. No end group written: not given here.

Tests used:
[1] = Rat, 5mg/kg SC, male animals; ref Investigator brochure (IB); cited from earlier work
[2] = system: angiogenesis and cell migration and invasion; details: cited from earlier work
Source text: Early investigations into the mechanism of action for ALM201 reported that the peptide is internalised into CD44-expressing cells and targets microtubules inhibiting migration and invasion in cancer and endothelial cells, similar to vascular disrupting agents. However, it was unclear if this was the principal mechanism of inhibiting angiogenesis or if other factors, such as inhibiting endothelial cell migration and inva ...

[3] = Urinary excretion of unchanged ALM201 (LC-MS/MS); type: in vivo; details: human, sc, patients with positive urine concentrations, urine collected over 6 h after dosing, day 1 cycle 1, read-out: Amount excreted in the urine, % of the administered dose, mean (±SD)
heparinised human blood = details: alone or with Staphylococcus Enterotoxin B, 10^-8 to 10^-6 M, ref Investigator brochure (IB); cited from earlier work
[4] = Dog, 5mg/kg SC, male animals; ref Investigator brochure (IB); cited from earlier work
tubulin = system: tubulin; parameters: method as in Investigator brochure (IB); details: ref Investigator brochure (IB), read-out: Tubulin polymerisation IC50, cited from earlier work
[5] = system: DU145 and HT29 xenografts; details: 3.0 mg/kg/day and 0.3 mg/kg/day, 14-day period, BALB-c SCID mouse, ref Investigator brochure (IB); cited from earlier work
Procedure: In vivo studies using a BALB-c SCID mouse xenograft model with DU145 and HT29 cell-lines, where the small tumours can be directly examined in situ using confocal and standard microscopy have shown that administration of ALM201 inhibits a range of markers of new blood vessel formation. Tumours were typically 1-2 mm at baseline and assessments taken over a 14-day period. Dose levels of 3.0 mg/kg/d ...

advanced solid tumours = test: Tumour response by RECIST 1.1; type: in vivo, human
Procedure: Tumour assessment by imaging (CT scan or MRI scan as appropriate for tumour type) was assessed in all patients at initial screening and after every two cycles of treatment (i.e., every 6 weeks) during cycles 1–8 (i.e., first 24 weeks), and then after every four cycles of treatment (i.e., every 12 weeks) from cycle nine onwards. Scans were reported according to RECIST version 1.1.

[6] = system: HMEC-1, a human vascular endothelial cell-line; details: protocol Table 3; ref Investigator brochure (IB); read-out: Wound scrape IC50; cited from earlier work
Source text: page 37: Almac Discovery Confidential There are five main histological subtypes of ovarian cancer differing in tissue of origin, stage of presentation, sensitivity to chemotherapy, survival and driver genetic mutations. The most aggressive of these subtypes are the high grade serous tumours. […] ALM201 also had no effect on cytok ...

[7] = system: ovarian patient-derived xenograft models; details: cited from earlier work
cell viability = details: protocol Table 2; ref Investigator brochure (IB); cited from earlier work
Source text: (§1) ALM201 also had no effect on cytok ...

cell cycle = details: protocol Table 2 (IC50 (nM)); ref Investigator brochure (IB); cited from earlier work
Source text: as §1

HMEC-1 = details: protocol Table 3; ref Investigator brochure (IB); read-out: Tube formation IC50; cited from earlier work
Source text: as §1

HMEC-1 cells = details: same concentration range, range of growth factors, ref Investigator brochure (IB); cited from earlier work
Source text: as §1

[8] = system: invasion stimulated by VEGF, EGF, FGF, PFGF and FCS; details: 10^-9 M (exponent printed displaced), ref Investigator brochure (IB); cited from earlier work
Source text: as §1

proliferation = details: protocol Table 3; ref Investigator brochure (IB); cited from earlier work
Source text: as §1

rat aorta = details: ex vivo rat aorta in Matrigel, 7-day period, depending on the parameter assessed; ref Investigator brochure (IB); read-out: IC50 for tubule out-growth parameters; cited from earlier work
Source text: as §1

[9] = ref Investigator brochure (IB), cited from earlier work
Procedure: page 40: Almac Discovery Confidential (i) a […] dose ranging study in rats, dose range 5-50 mg/kg/day; (ii) a non-GLP dose ranging study in dogs, dose range 15-50 mg/kg/day; (iii) a GLP 28-day study in rats, dose range 5-50 mg/kg/day; (iv) a GLP 28-day study in dogs, dose range 5-50 mg/kg/day; (v) a non-GLP wound healing study in rats, dose range 5-50 mg/kg/day. In the rat dose range finding study, administration of doses of up to 50 mg/kg/day for 14 days were assessed. ALM201 was well tolerated at all doses and the No Observable Adverse Effect Level (NOAEL) was considered to be 50 mg/kg/d ...

Sequence: IRQQPRDPPTETLELEVSPDPAS [ALM201]
- AUC24 [1]: 4320 ng·h/mL
- Cmax [1]: 3400 ng/mL
- Half-life [1]: 36 min
- Tmax [1]: 30 min
- Activity in standard in vitro and ex vivo assays of angiogenesis, cell migration and invasion [2]: low picomolar activity
- dose excreted [3]: 0.074%
- Effect on cytokine release and T-cell proliferation (heparinised human blood): no effect
- AUC24 [4]: 7300 ng·h/mL
- Cmax [4]: 2030 ng/mL
- Half-life [4]: 2.4 h
- Tmax [4]: 60 min
- IC50 (tubulin; protocol Table 2): 0.1 nM
- IC50 (tubulin; protocol Table 3): 0.11 nM
- Average vessel diameter, average segment length and vessel branch number [5]: significant decreases
- Stable disease / disease control rate (advanced solid tumours; 7/20 patients, stable disease for up to four cycles): 35%
- Disease progression (advanced solid tumours; 12 of 20 patients): 60%
- Partial or complete responses (advanced solid tumours; all patients): No partial or complete responses
- Patients with SD until the end of cycle 4 (advanced solid tumours; in vivo): Three
- IC50 [6]: 9 pM
- Tumour growth inhibition [7]: > 60%
- Cell viability IC50 (cell viability): No effect
- Cell cycle arrest (cell cycle): No effect
- IC50 (HMEC-1): 0.082 nM
- Effect on cell proliferation or cell cycle (HMEC-1 cells): no effect
- Invasion [8]: inhibit invasion
- Proliferation IC50 (proliferation): No effect
- IC50 (rat aorta): 0.005 to 0.02 nM
- NOAEL ([9]; beagle dog dose range finding, 15 and 50 mg/kg/day for 14 days): 50 mg/kg/day
- NOAEL ([9]; dog GLP 28 days plus recovery, 5, 15 and 50 mg/kg/day): 50 mg/kg/day
- NOAEL ([9]; rat GLP 28 days plus recovery, 5, 15 and 50 mg/kg/day): 50 mg/kg/day
- NOAEL ([9]; rat dose range finding study, up to 50 mg/kg/day for 14 days): 50 mg/kg/day
- Effect on wound closure or tensile strength ([9]; rat, 5 and 50 mg/kg/day for up to 18 days, versus vehicle controls): No effect
